Measured values reported in US8110605B2, “Compound for inactivating viruses and bacteria and method of making same” (priority 2009, dated 2012).
Where two headings read alike, the source gives them in different places.

Columns and labels:
[1] = test system: Influenza virus H1N1 subtype (A/WSN/33); assay type: cell-based
[2] = test system: H5N1 avian influenza virus (TW1209/03(H5N1)AIV); assay type: cell-based
[3] = test system: H5N1 avian influenza virus (TW1209/03(H5N1)AIV); assay type: cell-based; remark: listed apart in the source
[4] = test system: H5N2 avian influenza virus (TW1209/04(H5N2)AIV); assay type: cell-based
[5] = test system: H5N2 avian influenza virus (TW1209/04(H5N2)AIV); assay type: cell-based; remark: listed apart in the source
[6] = test system: avian influenza virus (AIV) subtype H5N2 (TW1209/04(H5N2)AIV) virions
[7] = test system: Enterovirus type 71 (EV-71) virions; test: AFM of Enterovirus type 71 virions treated with the compound; details: for maximum height of virus particles (AFM cursor profile): 5-10 minutes, native virion 75.23 nm; for calculated RMS height of treated particles: over 60 virus particles
[8] = test system: Staphylococcus aureus strain (ATCC-25923); test: Proliferation suppression of Staphylococcus aureus, MIC by broth dilution; assay type: cell-based; set-up: key to MIC of S. aureus: +: Proliferation of S. aureus,; −: Antibacterial effect of S. aureus; details: 10^4 CFU/mL
[9] = test system: MDCK cells
[10] = test system: MDCX cells
[11] = test system: MDCK cells; remark: listed apart in the source
[12] = test system: MDCK cells; remark: listed apart in the source

## O=C(O)C(CCCCCCCCCCS)C(=O)O [2-(10-mercaptodecyl)-propanedioic acid]
[1]
  concentration protecting cells against infection by influenza virus H1N1 subtype (as low as): 30 ppm
[1]; 3 ppm
  CPE, H1N1 influenza virus treated with compound: +
[1]; 30 ppm
  CPE, H1N1 influenza virus treated with compound: −
[1]; 100 ppm
  CPE, H1N1 influenza virus treated with compound: −
[1]; 300 ppm
  CPE, H1N1 influenza virus treated with compound: −
[1]; 1,000 ppm
  CPE, H1N1 influenza virus treated with compound: CTX
[1]; 3,000 ppm
  CPE, H1N1 influenza virus treated with compound: CTX
[2]
  concentration protecting cells against H5N1 influenza virus infection: above 1,000 ppm
[2]; 3 ppm
  CPE, H5N1 avian influenza virus treated with compound: +
[2]; 10 ppm
  CPE, H5N1 avian influenza virus treated with compound: +
[2]; 30 ppm
  CPE, H5N1 avian influenza virus treated with compound: +
[2]; 100 ppm
  CPE, H5N1 avian influenza virus treated with compound: −
[2]; 300 ppm
  CPE, H5N1 avian influenza virus treated with compound: −
[2]; 1,000 ppm
  CPE, H5N1 avian influenza virus treated with compound: CTX
[2]; 3,000 ppm
  CPE, H5N1 avian influenza virus treated with compound: CTX
[3]
  concentration protecting RBC cells to sustain no agglutination (HA testing, H5N1): above 1,000 ppm
[3]; 3 ppm
  HA, H5N1 avian influenza virus treated with compound: +
[3]; 10 ppm
  HA, H5N1 avian influenza virus treated with compound: +
[3]; 30 ppm
  HA, H5N1 avian influenza virus treated with compound: +
[3]; 100 ppm
  HA, H5N1 avian influenza virus treated with compound: −
[3]; 300 ppm
  HA, H5N1 avian influenza virus treated with compound: −
[3]; 1,000 ppm
  HA, H5N1 avian influenza virus treated with compound: CTX
[3]; 3,000 ppm
  HA, H5N1 avian influenza virus treated with compound: CTX
[4]
  concentration protecting cells against H5N2 influenza virus infection: above 1,000 ppm
[4]; 3 ppm
  CPE, H5N2 avian influenza virus treated with compound: +
[4]; 10 ppm
  CPE, H5N2 avian influenza virus treated with compound: +
[4]; 30 ppm
  CPE, H5N2 avian influenza virus treated with compound: +
[4]; 100 ppm
  CPE, H5N2 avian influenza virus treated with compound: −
[4]; 300 ppm
  CPE, H5N2 avian influenza virus treated with compound: −
[4]; 1,000 ppm
  CPE, H5N2 avian influenza virus treated with compound: CTX
[4]; 3,000 ppm
  CPE, H5N2 avian influenza virus treated with compound: CTX
[5]
  concentration protecting RBC cells to sustain no agglutination (HA testing, H5N2): above 1,000 ppm
[5]; 3 ppm
  HA, H5N2 avian influenza virus treated with compound: +
[5]; 10 ppm
  HA, H5N2 avian influenza virus treated with compound: +
[5]; 30 ppm
  HA, H5N2 avian influenza virus treated with compound: +
[5]; 100 ppm
  HA, H5N2 avian influenza virus treated with compound: −
[5]; 300 ppm
  HA, H5N2 avian influenza virus treated with compound: −
[5]; 1,000 ppm
  HA, H5N2 avian influenza virus treated with compound: CTX
[5]; 3,000 ppm
  HA, H5N2 avian influenza virus treated with compound: CTX
[6]
  viral morphology by AFM: broken down and flattened
[6]; 100 ppm
  calculated RMS height of treated particles: 14.29±0.87 nm
[6]; 1,000 ppm
  calculated RMS height of treated particles: 5.62±0.53 nm
[7]; 30 and 1,000 ppm, FIGS. 5B and 5C
  viral morphology by AFM: broken down and flattened
[7]; 30 ppm, FIG. 5B′
  maximum height of virus particles (AFM cursor profile): ~10.35 nm
[7]; 30 ppm
  calculated RMS height of treated particles: 10.49±0.52 nm
[7]; 1,000 ppm, FIG. 5C′
  maximum height of virus particles (AFM cursor profile): ~8.41 nm
[7]; 1,000 ppm
  calculated RMS height of treated particles: 8.35±0.63 nm
[8]; Staphylococcus aureus, ATCC25923, broth dilution method, read-out: final concentration suppressing proliferation of S. aureus (MIC)
  MIC: 20 µg/mL
[8]; final concentration 5 ppm
  MIC of S. aureus: +
[8]; final concentration 10 ppm
  MIC of S. aureus: +
[8]; final concentration 20 ppm
  MIC of S. aureus: −
[8]; final concentration 50 ppm
  MIC of S. aureus: −
[8]; final concentration 100 ppm
  MIC of S. aureus: −
[8]; final concentration 200 ppm
  MIC of S. aureus: −
[9]; 3 ppm
  CPE, compound only: −
[9]; 10 ppm
  CPE, compound only: −
[9]; 30 ppm
  CPE, compound only: −
[9]; 100 ppm
  CPE, compound only: −
[9]; 300 ppm
  CPE, compound only: −
[9]; 1,000 ppm
  CPE, compound only: CTX
[9]; 3,000 ppm
  CPE, compound only: CTX
[10]; 3 ppm
  CPE, compound only: −
[10]; 10 ppm
  CPE, compound only: −
[10]; 30 ppm
  CPE, compound only: −
[10]; 100 ppm
  CPE, compound only: −
[10]; 300 ppm
  CPE, compound only: −
[10]; 1,000 ppm
  CPE, compound only: CTX
[10]; 3,000 ppm
  CPE, compound only: CTX
[10]; dog
  concentration at which cytotoxicity occurred: exceeding 1,000 ppm
  concentration causing no cytotoxicity: less than 300 ppm
[11]; 3 ppm
  CPE, compound only: −
[11]; 10 ppm
  CPE, compound only: −
[11]; 30 ppm
  CPE, compound only: −
[11]; 100 ppm
  CPE, compound only: −
[11]; 300 ppm
  CPE, compound only: −
[11]; 1,000 ppm
  CPE, compound only: CTX
[11]; 3,000 ppm
  CPE, compound only: CTX
[12]; 3 ppm
  CPE, compound only: −
[12]; 10 ppm
  CPE, compound only: −
[12]; 30 ppm
  CPE, compound only: −
[12]; 100 ppm
  CPE, compound only: −
[12]; 300 ppm
  CPE, compound only: −
[12]; 1,000 ppm
  CPE, compound only: CTX
[12]; 3,000 ppm
  CPE, compound only: CTX
